# Tests used:
# Assay type in all cases: in vivo, human
# [1] = test system: females between 13-18 years of age with a primary diagnosis of MDD, fluoxetine-treated (SSRI-resistant depression); experiment: Open-label adjunctive creatine study: Children's Depression Rating Scale-Revised (CDRS-R) raw score
# Method: Approval for the study was obtained from the University of Utah Institutional Review Board (IRB). Informed consent consisted of written parental permission as well as written assent from participants. The study was conducted under U.S. Food and Drug Administration (FDA) Investigational New Drug Application #104,586. An external Data Safety and Monitoring Board vested with authority to halt the trial was established, and the study was conducted in accordance of the principles of Good Clinical Practice (GCP).
# Participants were recruited through clinician referrals and IRB-approved advertising. Consecutive patients who met inclusion criteria were enrolled. Inclusion criteria included the following: females between 13-18 years of age with a primary diagnosis of MDD and depressive symptoms persisting for >2 weeks at baseline; fluoxetine treatment for >8 weeks with >4 weeks at a dose of >40 mg/day (if doses higher than 20 mg/day were not tolerated, participants could meet inclusion criteria by taking fluoxetine 20 mg/day for >8 weeks); and a current Children's Depression Rating Scale-Revised (CDRS-R) (Poznanski and Mokros 1996) raw score>40. Consistent with the preliminary nature of the study, few exclusion criteria were applied. For example, no restrictions were placed on concomitant medications or psychotherapy. The study's exclusion criteria were: pre-existing renal disease, proteinuria or microalbuminuria at baseline; contraindication to magnetic resonance scanning (e.g. ferromagnetic implants or claustrophobia); primary diagnosis other than MDD; active psychotic symptoms; high risk for suicidal behavior; positive pregnancy test; active alcohol or drug addiction; known or suspected mental retardation; and unstable medical condition.
# (§1) Diagnoses were established with the Schedule for Affective Disorders and Schizophrenia for School-Age Children-Present and Lifetime Version (K-SADS-PL) (Kaufman et al. 1997). A complete blood count, metabolic panel, lipid profile, thyroid stimulating hormone, urinalysis and urine microalbumin were obtained to establish that participants were in generally good health, and to rule out the presence of undiagnosed medical conditions. The laboratory studies were repeated at the conclusion of treatment, to prospectively identify any abnormalities associated with creatine administration.
# Participants with depression were treated with fixed-dose Creapure® brand of creatine monohydrate (AlzChem LLC, Trostberg, Germany) 4 grams by mouth daily for 8 weeks. At each study visit, the following rating scales were administered: the CDRS ? R, the Clinical Global Impressions scale (Guy 1976) and the Columbia-Suicide Severity Rating Scale (C-SSRS) (Posner 2010). Adverse events were recorded at each study visit. Change in CDRS-R raw score was the primary outcome measure, with C-SSRS results and treatment-emergent adverse events serving as secondary clinical outcomes. ^31P-MRS brain scans were acquired with a Siemens 3 Tesla MRS scanner (Siemens AG, Munich, Germany) that is FDA-approved for clinical use. Two dimensional chemical shift imaging free induction decay (2D CSI FID) pulse sequence with an Fourier voxel resolution of 25×25×25 mm3, Field of View (FOV)=200×200×25 mm3, TR/TE=3000/2.3 ms, vector size=1024, bandwidth=2500 Hz, data collection time=11.2 minutes and the number of averages=24 was implemented to collect 2D CSI FID data using a ^31P/1H double-tuned volume head coil (Clinical MR Solutions LLC, Brookfield, Wis., USA). The proton channel was used for localization, high-resolution anatomic image acquisition and shimming Shimming was performed over the excited volume. 3D high-resolution images used for localization of CSI data were collected using inversion recovery magnetization prepared rapid gradient echo (MP-RAGE) pulse sequence with isotropic 1 mm3 resolution. […]
# [2] = test system: brain phosphorus metabolites (PCr, b-NTP, pH); experiment: 31P-MRS brain scans of phosphorus metabolites at baseline and after 8 weeks of creatine
# Method: Healthy control female adolescents were recruited for comparison ^31P-MRS scans through IRB-approved advertising. Following informed consent, the K-SADS-PL and CDRS-R were administered to establish the absence of psychiatric disorder(s) or depressive symptoms.
# (§2) Participants with depression were treated with fixed-dose Creapure® brand of creatine monohydrate (AlzChem LLC, Trostberg, Germany) 4 grams by mouth daily for 8 weeks. At each study visit, the following rating scales were administered: the CDRS ? R, the Clinical Global Impressions scale (Guy 1976) and the Columbia-Suicide Severity Rating Scale (C-SSRS) (Posner 2010). Adverse events were recorded at each study visit. Change in CDRS-R raw score was the primary outcome measure, with C-SSRS results and treatment-emergent adverse events serving as secondary clinical outcomes. ^31P-MRS brain scans were acquired with a Siemens 3 Tesla MRS scanner (Siemens AG, Munich, Germany) that is FDA-approved for clinical use. Two dimensional chemical shift imaging free induction decay (2D CSI FID) pulse sequence with an Fourier voxel resolution of 25×25×25 mm3, Field of View (FOV)=200×200×25 mm3, TR/TE=3000/2.3 ms, vector size=1024, bandwidth=2500 Hz, data collection time=11.2 minutes and the number of averages=24 was implemented to collect 2D CSI FID data using a ^31P/1H double-tuned volume head coil (Clinical MR Solutions LLC, Brookfield, Wis., USA). The proton channel was used for localization, high-resolution anatomic image acquisition and shimming Shimming was performed over the excited volume. 3D high-resolution images used for localization of CSI data were collected using inversion recovery magnetization prepared rapid gradient echo (MP-RAGE) pulse sequence with isotropic 1 mm3 resolution. The imaging parameters were as follows: TR/TE=2000/3.37 ms, FOV=256×192×144 mm3, and matrix size=256×1 92×144, for a total acquisition time of 4.8 minutes. Participants were instructed during the informed consent process, and again before entering the scanner, that they could discontinue scanning at any point if they experienced discomfort (e.g. claustrophobic anxiety). Non-study personnel trained in research patient advocacy attended each scanning session. The study protocol included two ^31P-MRS scans: one at baseline and a follow-up scan 8 weeks later.
# ^31P MRS data were analyzed using jMRUI software (jMRUI version 4.0, European Community). A Hamming filter was applied to reduce signal contamination from neighbouring voxels before performing 2D Fast Fourier Transform (FFT) on the raw data. Nine voxel signals from a slice with a thickness of 25 mm located at the corpus callosum, anterior commissure and posterior commissure were summed after 2D FFT. Each voxel FID was apodized with a 10 Hz exponential line broadening before zero filling and FFT. The zero-order and first-order phase correction was performed in all spectrums.
# We calculated the signal amplitudes for individual metabolites using AMARES (Advanced Method for Accurate, Robust and Efficient Spectral fitting of MRS data), which is a non-linear, time domain fitting algorithm within the jMRUI software application. The estimated amplitudes of phosphorus metabolites are reported with respect to the total ^31P or beta-NTP amplitude within the time domain signals. The ^31P MRS signal amplitude for each metabolite is directly related to the integrated area under the modeled spectrum in the frequency domain.
# The depressed participants' ^31P-MRS brain scans were performed at baseline (prior to the first dose of creatine) and repeated at the conclusion of treatment. We enrolled and acquired baseline scans from ten healthy female adolescent controls; six agreed to return eight weeks later for a second scan. Statistical analyses were performed using JMP 8 (SAS Inc., Cary, N.C. USA). Because this was an open-label pilot study, all analyses were considered exploratory and no correction for multiple hypothesis testing was applied.
# [3] = test system: suicidality in female adolescents with MDD; experiment: Columbia-Suicide Severity Rating Scale (C-SSRS) monitoring during creatine treatment; conditions: for C-SSRS During Treatment With Creatine (Weeks): monohydrate
# Method: as §2
# One participant reported no history of suicidal thoughts or behavior, but the others each endorsed significant histories of suicidality, indicating the severity and chronicity of the participants. Three of the participants had attempted suicide between 5 months and 5 years prior to study entry; at intake, four participants reported suicidal ideation in the 2 weeks prior to their baseline visit. During the treatment phase of the study, two participants reported no suicidality. Three participants reported suicidal ideation as treatment began, which lasted between 2 and 6 weeks. […]
# [4] = Adverse events, vital signs and laboratory tests during creatine treatment
# Source text: as §1, §2
# Participants' vital signs were recorded at each study visit. […] Although not measured systematically, participant and parent acceptance of creatine as a treatment intervention appeared good, and there were no premature terminations due to concerns about the study drug.
# [5] = entry vs week 8, creatine 4 g daily adjunctive to fluoxetine, n=5
structure (smiles),measurement,setting,value
"CN(CC(=O)O)C(=N)N.O [creatine, creatine monohydrate]",mean CDRS-R score after eight weeks of treatment,"[1]; creatine monohydrate 4 g by mouth daily for 8 weeks, adjunctive to fluoxetine, n=5, mean raw score at entry 69",30.6
same,decrease of mean CDRS-R raw score,[1]; [5],56%
same,mean reduction in CDRS-R raw score (primary outcome measure),[1]; [5],38.4
same,CDRS-R (Week),"[1]; participant 1, week 8, baseline 82, fluoxetine 40 mg",24 (8)
same,CDRS-R (Week),"[1]; participant 2, week 8, baseline 76, fluoxetine 40 mg",44 (8)
same,CDRS-R (Week),"[1]; participant 3, week 8, baseline 59, fluoxetine 40 mg",29 (8)
same,CDRS-R (Week),"[1]; participant 4, week 8, baseline 66, fluoxetine 20 mg",23 (8)
same,CDRS-R (Week),"[1]; participant 5, week 8, baseline 62, fluoxetine 40 mg",33 (8)
same,mean CDRS-R raw score at week ten,"[1]; two weeks after discontinuation of creatine, compared with week 8",lower than at the conclusion of treatment
same,"PCr-TP, Mean 8 Weeks","[2]; MDD group n=5 after 8 weeks creatine 4 g daily, mean baseline 0.1525, p 0.020 paired t-test",0.1610
same,"b-NTP/TP, Mean 8 Weeks","[2]; MDD group n=5 after 8 weeks creatine, mean baseline 0.125, p 0.729",0.128
same,"PCr/b-NTP, Mean 8 Weeks","[2]; MDD group n=5 after 8 weeks creatine, mean baseline 1.221, p 0.528",1.270
same,"pH, Mean 8 Weeks","[2]; MDD group n=5 after 8 weeks creatine, mean baseline 7.059, p 0.648",7.071
same,change in mean PCr/b-NTP ratio,[2]; following 8 weeks of treatment,no change
same,change in mean b-NTP,[2]; following 8 weeks of treatment,no change
same,change in mean pH,[2]; following 8 weeks of treatment,no change
same,change in mean PCr,"[2]; following 8 weeks of treatment, p=0.020, paired t-test, 2-tailed",significant increase
same,duration of suicidal ideation reported as treatment began,[3]; in vivo,2-6 weeks
same,outcome of participants' suicidal thoughts,[3]; in vivo,resolved during treatment with creatine and did not recur
same,C-SSRS During Treatment With Creatine (Weeks),"[3]; participant 3, baseline: wish to be dead 1 week prior to study drug",Wish to be Dead (1)
same,C-SSRS During Treatment With Creatine (Weeks),"[3]; participant 4, baseline: wish to be dead 1 week prior to study entry",Wish to be Dead (1-5)
same,Serious Adverse Events (SAEs),[4]; in vivo,no Serious Adverse Events
same,"changes in weight, blood pressure or heart rate",[4]; in vivo,No statistically significant changes
same,course of adverse events,[4]; in vivo,self-limited
same,microalbuminuria or serum creatinine outside the reference range,[4]; in vivo,No participant developed microalbuminuria or a serum creatinine outside the reference range
same,tolerability,[4]; in vivo,well tolerated
same,withdrawal due to treatment emergent adverse effects or lack of efficacy,[4]; in vivo,No participant withdrew
same,Adverse Events,"[4]; participant 3, * = possibly or probably related to study drug, monohydrate",H1N1 influenza*

# Source: patent US20130324609A1, “DEPRESSION DISORDER THERAPEUTICS WITH CREATINE ANALOGS” (UNIVERSITY OF UTAH RESEARCH FOUNDATION, priority 2010, published 2013)
